Drawing on US12202801B1 (priority 2023, dated 2025), this text covers MIC for one compound.

In test [1] the test system is Mycobacterium tuberculosis multidrug-resistant (MDR) strain. Kind of test: microbe, parasite or virus in culture. The format is cell-based. The note with it: 192 h, read-out: Anti-tubercular activity against Mycobacterium tuberculosis (MIC), MDR.
Test [2] deals with Mycobacterium tuberculosis extensively drug-resistant (XDR) strain. The test is described as follows: microbe, parasite or virus in culture. The note with it: 192 h, read-out: Anti-tubercular activity against Mycobacterium tuberculosis (MIC), XDR. The format is cell-based.

Consider `N#Cc1ccc(C(=O)C[n+]2ccc(C#N)cc2)cc1.[Br-]` [Compound 3f, 4-Cyano-1-(2-(4-cyanophenyl)-2-oxoethyl)pyridin-1-ium bromide], for which the values for the MIC in test [1] and in test [2] were 4 µg/mL and 32 µg/mL, respectively.
